This note sets out measurements from patent US6825185B2, “Substituted aryl compounds as novel cyclooxygenase-2 selective inhibitors, compositions and methods of use” (NitroMed, Inc., priority 2000, dated 2004).

In one assay the target is COX-1 (Homo sapiens, UniProt P23219). Put plainly: COX-1 enzyme activity in human whole blood (A23187 stimulated, thromboxane B2 EIA). Type of assay: cell-based. On the set-up: Human blood (≈50 mL) from male or female donors who had not received any aspirin or NSAIDs for 14 days; endogenous in cells; host or cells: human whole blood from donors. As to conditions: for COX-1 Inhibition (% at 100 μM): test compound at 100 μM. The method, then: (§1) The assay for COX-1 and COX-2 enzyme activity, in the human whole blood was performed as described in Brideau et al., Inflamm Res., 45: 68-74 (1996)). Human blood (≈50 mL) from male or female donors who had not received any aspirin or NSAIDs for 14 days was collected at two local area blood donor centers and placed in polypropylene syringes containing sodium heparin (20 units per mL blood, final concentration). The blood was transported to the laboratory on ice packs and used within 1.5 hours of collection. Upon receipt in the laboratory, the blood was allowed to come to room temperature for 15 minutes prior to distribution in 1 mL aliquots per well of 24 well tissue culture plates. The plates were then placed on a gently rotating platform shaker in a 5% CO2 incubator at 37° C. for 15 minutes. Test compounds were dissolved in DMSO, at 1000 fold the final desired concentration, and further diluted, as indicated, in DMSO. One μL of each dilution of the test compound was added per well, in duplicate wells; wells not receiving test compound (e.g., basal, background or control wells) received 1 μL DMSO.
(§2) To induce COX-2, lipopolysaccharide (LPS) from E. coli (LPS, serotype 026:B6 or serotype 0127:B8, Sigma Chemical Co., St. Louis, Mo., Catalogue No. L3755 or L3129, respectively) was added at 10 μg/mL (2 μL of 5 mg/mL LPS in DMSO) to appropriate wells 15 minutes after the addition of the test compound. (Basal or background wells not incubated with LPS received 2 μL of DMSO.) For the stimulation of COX-1, the calcium ionophore, A23187 (free acid from Sigma Chemical Co., St. Louis, Mo., Catalogue No. C7522) was added at 25 μM (1 μL of 25 mM stock in DMSO) to separate wells 4.5 hours after the addition of the test compound. (Again, basal, background or control wells not stimulated with A23187 received 1 μL of DMSO.) At 5 hours after the addition of the test compound, all incubations were terminated by placement on ice and the addition of 2 mM EGTA (100 μL of 20 mM EGTA, tetrasodium, in PBS (phosphate buffered saline) without Ca^++ and Mg^++, pH 7.2)). The resulting solutions, were transferred by polyethylene transfer pipettes to 15 mL polypropylene centrifuge tubes and centrifuged at 1200 g for 10 minutes at 4° C. One hundred μL of plasma was removed from each blood sample and added to 1 mL of methanol in new 15 mL polypropylene centrifuge tubes, vortexed, and stored overnight at −20° C. The next day, the samples were centrifuged at 2000 g for 10 minutes at 4° C. and the supernatants transferred to glass tubes and evaporated to dryness. The samples were assayed for thromboxane B2 using EIA kits supplied by Cayman Chemical Co. (Ann Arbor, Mich., Catalogue No. 519031) in duplicate wells after reconstitution with EIA Buffer and appropriate dilution (2000 fold for COX-1 and 500 fold for Cox-2 samples).

Another assay has as its target T1, COX-2 (Homo sapiens, UniProt P35354).
T1 sequence (P35354 18-604): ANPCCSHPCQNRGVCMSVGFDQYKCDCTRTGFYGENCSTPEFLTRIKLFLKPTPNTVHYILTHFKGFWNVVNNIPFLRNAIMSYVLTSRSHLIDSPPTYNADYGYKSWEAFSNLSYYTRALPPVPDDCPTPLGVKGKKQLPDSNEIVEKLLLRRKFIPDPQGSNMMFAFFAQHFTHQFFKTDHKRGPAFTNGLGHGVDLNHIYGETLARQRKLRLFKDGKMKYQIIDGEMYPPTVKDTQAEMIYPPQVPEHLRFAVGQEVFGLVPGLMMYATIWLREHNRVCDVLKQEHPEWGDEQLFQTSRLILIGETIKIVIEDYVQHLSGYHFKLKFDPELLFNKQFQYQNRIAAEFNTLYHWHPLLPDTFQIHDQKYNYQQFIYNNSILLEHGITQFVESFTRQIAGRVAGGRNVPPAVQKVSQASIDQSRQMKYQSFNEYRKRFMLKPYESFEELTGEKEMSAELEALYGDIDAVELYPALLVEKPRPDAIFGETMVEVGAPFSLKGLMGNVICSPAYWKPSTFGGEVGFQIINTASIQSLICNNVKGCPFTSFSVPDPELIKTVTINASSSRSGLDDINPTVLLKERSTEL
Put plainly: COX-2 enzyme activity in human whole blood (LPS induced, thromboxane B2 EIA). Type of assay: cell-based. Also noted: Human blood (≈50 mL) from male or female donors who had not received any aspirin or NSAIDs for 14 days; endogenous in cells; host or cells: human whole blood from donors, LPS-induced. The settings on record: test compound at 10 μM. The method, then: as §1, with “Human” for “The assay for COX-1 and COX-2 enzyme activity, in the human whole blood was performed as described in Brideau et al., Inflamm Res., 45: 68-74 (1996)). Human”
as §2, with “(Basal or background wells not incubated with LPS received 2 μL of DMSO.) For the stimulation of COX-1, the calcium ionophore, A23187 (free acid from Sigma Chemical Co., St. Louis, Mo., Catalogue No. C7522) was added at 25 μM (1 μL of 25 mM stock in DMSO) to separate wells 4.5 hours after the addition of the test compound.” left out, “dryness.” for “dryness. The samples were assayed for thromboxane B2 using EIA kits supplied by Cayman Chemical Co. (Ann Arbor, Mich., Catalogue No. 519031) in duplicate wells after reconstitution with EIA Buffer and appropriate dilution (2000 fold for COX-1 and 500 fold for Cox-2 samples).”

Sequence of COX-1 (P23219 24-599): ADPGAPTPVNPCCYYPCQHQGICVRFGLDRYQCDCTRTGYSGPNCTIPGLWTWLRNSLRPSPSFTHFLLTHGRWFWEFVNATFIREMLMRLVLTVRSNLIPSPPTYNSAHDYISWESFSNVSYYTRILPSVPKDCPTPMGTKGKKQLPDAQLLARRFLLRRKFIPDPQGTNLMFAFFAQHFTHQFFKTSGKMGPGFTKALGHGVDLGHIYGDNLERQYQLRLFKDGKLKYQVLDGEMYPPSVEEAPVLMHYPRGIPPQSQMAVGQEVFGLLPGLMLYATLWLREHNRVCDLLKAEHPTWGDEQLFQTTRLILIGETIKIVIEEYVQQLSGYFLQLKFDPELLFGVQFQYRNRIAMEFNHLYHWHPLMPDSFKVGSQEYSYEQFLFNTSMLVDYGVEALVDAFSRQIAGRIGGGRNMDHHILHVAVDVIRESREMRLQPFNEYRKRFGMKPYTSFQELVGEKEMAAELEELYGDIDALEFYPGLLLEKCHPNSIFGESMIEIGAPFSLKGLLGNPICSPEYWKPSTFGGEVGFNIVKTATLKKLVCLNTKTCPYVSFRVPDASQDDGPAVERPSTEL

Take `CS(=O)(=O)c1ccc(-c2cc3c(cc2C(=O)C2CCCCC2)OCO3)cc1` [Example 2c, Cyclohexyl 6-(4-(methylsulfonyl)phenyl)(2H-benzo(d)1,3-dioxolan-5-yl) ketone]: at COX-1 (test compound at 30 μM), the “COX-1 Inhibition (% at 30 μM)” value is reported as 70 (at 30 μM) %. In addition, the “COX-2 Inhibition (% at 10 μM)” value at COX-2 came out at 85%.
On to `CS(=O)(=O)c1ccc(-c2cc3c(cc2Cc2ccccc2)OCO3)cc1` [Example 3c, 4-(Methylsulfonyl)-1-(6-benzyl(2H-benzo(3,4-d)1,3-dioxolan-5-yl))benzene], for which the “COX-1 Inhibition (% at 100 μM)” value on COX-1 was found to be 65%. Also, the “COX-2 Inhibition (% at 10 μM)” value at COX-2 was found to be 50%.
As to `CS(=O)(=O)c1ccc(-c2cc3c(cc2CC2CCCCCC2)OCO3)cc1` [Example 11c, 4-(6-(Cycloheptylmethyl)(2H-benzo(3,4-d)1,3-dioxolan-5-yl))-1-(methylsulfonyl)benzene], the “COX-1 Inhibition (% at 100 μM)” value at COX-1 stood at 40%. Besides, on COX-2, the “COX-2 Inhibition (% at 10 μM)” value worked out at 80%.
For the compound `CS(=O)(=O)c1ccc(-c2cc3c(cc2C(=O)c2cccc(F)c2)OCO3)cc1` [Example 5d, 3-Fluorophenyl 6-(4-(methylsulfonyl)phenyl)(2H-benzo(d)1,3-dioxolan-5-yl) ketone], the “COX-1 Inhibition (% at 100 μM)” value at COX-1 was determined as 70%. On COX-2, the “COX-2 Inhibition (% at 10 μM)” value is 95%.
Turning to `C/C(=C\c1cc2c(cc1-c1ccc(S(C)(=O)=O)cc1)OCO2)CO` [Example 7e, 1-(6-((1E)-3-Hydroxy-2-methylprop-1-enyl)(2H-benzo(3,4-d)1,3-dioxolan-5-yl))-4-(methylsulfonyl)benzene], the “COX-1 Inhibition (% at 100 μM)” value on COX-1 is on record as 20%. Moreover, the “COX-2 Inhibition (% at 10 μM)” value on COX-2 came to 10%.
With `CCOC(=O)/C(C)=C/c1cc2c(cc1-c1ccc(S(C)(=O)=O)cc1)OCO2` [Example 7d, Ethyl (2E)-2-methyl-3-(6-(4-(methylsulfonyl)phenyl)(2H-benzo(d)1,3-dioxolan-5-yl))prop-2-enoate], at COX-1, the “COX-1 Inhibition (% at 100 μM)” value is reported as 5%. Moreover, the “COX-2 Inhibition (% at 10 μM)” value at COX-2 was found to be 35%.
With “1-(7-((3,5-Difluorophenyl)methyl)-2-((nitrooxy)methyl)(2H, 3H-benzo(3,4-e)1, 4-dioxin-6-yl))-4-(methylsulfonyl)benzene and 1-(7-((3,5-difluorophenyl)methyl)-3-((nitrooxy)methyl)(2H, 3H-benzo(e)1,4-dioxin-6-yl))-4-(methylsulfonyl)benzene [Example 19b]”, on COX-1, the “COX-1 Inhibition (% at 100 μM)” value is on record as 65%. Further, the “COX-2 Inhibition (% at 10 μM)” value at COX-2 is listed as 35%.
In the case of “1-(7-((3,5-Difluorophenyl)methyl)-2-(hydroxymethyl)(2H, 3H-benzo(3,4-e)1,4-dioxin-6-yl))-4-(methylsulfonyl)benzene and 1-(7-((3,5-difluorophenyl)methyl)-3-(hydroxymethyl)(2H, 3H-benzo(e)1,4-dioxin-6-yl))-4-(methylsulfonyl)benzene [Example 19a]”, on COX-1, the “COX-1 Inhibition (% at 100 μM)” value was 45%. In addition, the “COX-2 Inhibition (% at 10 μM)” value at COX-2 is on record as 15%.
As to `Cc1cccc(C(=O)c2cc3c(cc2-c2ccc(S(C)(=O)=O)cc2)OCO3)c1` [Example 12c, 3-Methylphenyl 6-(4-(methylsulfonyl)phenyl)(2H-benzo(d)1,3-dioxolan-5-yl)ketone], at COX-1, the “COX-1 Inhibition (% at 100 μM)” value is given as 90%. Moreover, the “COX-2 Inhibition (% at 10 μM)” value at COX-2 was found to be 90%.
Regarding `CS(=O)(=O)c1ccc(-c2cc(O)c(O)cc2C(=O)c2cc(F)cc(F)c2)cc1` [Example 17h, 4-(1-(3′,5′-Difluorophenyl)-1-oxomethyl)-1,2-hydroxy-5-(4-methylsulfonylphenyl)benzene], the “COX-1 Inhibition (% at 100 μM)” value on COX-1 amounted to 65%. Besides, on COX-2, the “COX-2 Inhibition (% at 10 μM)” value worked out at 55%.
Turning to `COc1cccc(C(=O)c2cc3c(cc2-c2ccc(S(C)(=O)=O)cc2)OCO3)c1` [Example 13c, 3-Methoxyphenyl-6-(4-(methylsulfonyl)phenyl)(2H-benzo(d)1,3-dioxolan-5-yl) ketone], on COX-1, the “COX-1 Inhibition (% at 100 μM)” value was found to be 90%. Also, the “COX-2 Inhibition (% at 10 μM)” value on COX-2 was 75%.
As to `CS(=O)(=O)c1ccc(-c2cc3c(cc2Cc2cc(F)cc(F)c2)OC(C(=O)NCCO)CO3)cc1` (stereo not shown) [Example 18b, (7-((3,5-Difluorophenyl)methyl)-6-(4-(methylsulfonyl)phenyl)(2H, 3H-benzo(e)1,4-dioxin-2-yl))-N-(2-hydroxyethyl)carboxamido], the “COX-1 Inhibition (% at 100 μM)” value at COX-1 is 50%. In addition, on COX-2, the “COX-2 Inhibition (% at 10 μM)” value is reported as 25%.
For the compound `CS(=O)(=O)c1ccc(-c2cc3c(cc2C(=O)c2cccc(CO[N+](=O)[O-])c2)OCO3)cc1` [Example 12d, 6-(4-(methylsulfonyl)phenyl)(2H-benzo(d)1,3-dioxolan-5-yl)3-((nitrooxy)methyl)phenylketone], the “COX-1 Inhibition (% at 100 μM)” value on COX-1 amounted to 20%. Further, the “COX-2 Inhibition (% at 10 μM)” value on COX-2 is 20%.
As for `CS(=O)(=O)c1ccc(-c2cc3c(cc2Cc2cccc(F)c2)OCO3)cc1` [Example 5c, 1-(6-((3-Fluorophenyl)methyl)(2H-benzo(3,4-d)1,3-dioxolan-5-yl))-4-(methylsulfonyl)benzene], the “COX-1 Inhibition (% at 100 μM)” value at COX-1 is on record as 55%. Besides, on COX-2, the “COX-2 Inhibition (% at 10 μM)” value is listed as 90%.
